ChEMBL document CHEMBL4406811, “Optimization and Mechanistic Characterization of Pyridopyrimidine Inhibitors of Bacterial Biotin Carboxylase” (J Med Chem, 2019)

Legend:
Escherichia coli = experiment: Antibacterial activity against Escherichia coli DM4100 harboring deltatolC mutant measured after 18 to 20 hrs in presence of permeabilizing agent PMBN by broth microdilution method; type: functional
ABL1 = ABL1 (Homo sapiens, UniProt P00519); experiment: Inhibition of full-length recombinant human His-tagged ABL1 cytoplasmic domain expressed in baculovirus expression system at 25 uM using FRET-labeled tyr 02 peptide as substrate measured after 1 hr by Z'-lyte assay relative to control; details: probe FRET-labeled tyr 02 peptide
EGFR = EGFR (Homo sapiens, UniProt P00533); experiment: Inhibition of recombinant human GST-tagged EGFR cytoplasmic domain (668 to 1210 residues) expressed in baculovirus expression system at 25 uM using FRET-labeled tyr 04 peptide as substrate measured after 1 hr by Z'-lyte assay relative to control; details: probe FRET-labeled tyr 04 peptide
MAP4K4 = MAP4K4 (Homo sapiens, UniProt O95819); experiment: Inhibition of recombinant human GST-tagged MAP4K4 catalytic domain (1 to 328 residues) expressed in baculovirus expression system at 25 uM using FRET-labeled Ser/Thr 07 peptide as substrate measured after 1 hr by Z'-lyte assay relative to control; details: probe FRET-labeled Ser/Thr 07 peptide
NTRK1 = NTRK1 (Homo sapiens, UniProt P04629); experiment: Inhibition of recombinant human His-tagged NTRK1 cytoplasmic domain (441 to 796 residues) expressed in baculovirus expression system at 25 uM using FRET-labeled tyr 07 peptide as substrate measured after 1 hr by Z'-lyte assay relative to control; details: probe FRET-labeled tyr 07 peptide
PAK4 = PAK4 (Homo sapiens, UniProt O96013); experiment: Inhibition of recombinant human GST-tagged PAK4 catalytic domain (295 to 591 residues) expressed in baculovirus expression system at 25 uM using FRET-labeled Ser/Thr 20 peptide as substrate measured after 1 hr by Z'-lyte assay relative to control; details: probe FRET-labeled Ser/Thr 20 peptide
CSNK1D = CSNK1D (Homo sapiens, UniProt P48730); experiment: Inhibition of recombinant human full-length GST-tagged CSNK1D expressed in baculovirus expression system at 25 uM using FRET-labeled Ser/Thr 11 peptide as substrate measured after 1 hr by Z'-lyte assay relative to control; details: probe FRET-labeled Ser/Thr 11 peptide
CHEK2 = CHEK2 (Homo sapiens, UniProt O96017); experiment: Inhibition of recombinant human full-length His-tagged CHEK2 expressed in baculovirus expression system at 25 uM using FRET-labeled Ser/Thr 07 peptide as substrate measured after 1 hr by Z'-lyte assay relative to control; details: probe FRET-labeled Ser/Thr 07 peptide
MAPKAPK2 = MAPKAPK2 (Homo sapiens, UniProt P49137); experiment: Inhibition of recombinant human full-length His-tagged MAPKAPK2 expressed in Escherichia coli at 25 uM using FRET-labeled Ser/Thr 04 peptide as substrate measured after 1 hr by Z'-lyte assay relative to control; details: probe FRET-labeled Ser/Thr 04 peptide
INSR = INSR (Homo sapiens, UniProt P06213); experiment: Inhibition of recombinant human GST-tagged INSR cytoplasmic domain (1011 to 1382 residues) expressed in baculovirus expression system at 25 uM using FRET-labeled Tyr 01 peptide as substrate measured after 1 hr by Z'-lyte assay relative to control; details: probe FRET-labeled Tyr 01 peptide
GSK3B = GSK3B (Homo sapiens, UniProt P49841); experiment: Inhibition of recombinant human full-length His-tagged GSK3B expressed in baculovirus expression system at 25 uM using FRET-labeled Ser/Thr 09 peptide as substrate measured after 1 hr by Z'-lyte assay relative to control; details: probe FRET-labeled Ser/Thr 09 peptide
AKT1 = AKT1 (Homo sapiens, UniProt P31749); experiment: Inhibition of recombinant human full-length His-tagged AKT1 expressed in baculovirus expression system at 25 uM using FRET-labeled Ser/Thr 05 peptide as substrate measured after 1 hr by Z'-lyte assay relative to control; details: probe FRET-labeled Ser/Thr 05 peptide
PDK1 = PDK1 (Homo sapiens, UniProt Q15118); experiment: Inhibition of recombinant human full-length His-tagged PDK1 expressed in baculovirus expression system at 25 uM using FRET-labeled Ser/Thr 07 peptide as substrate measured after 1 hr by Z'-lyte assay relative to control; details: probe FRET-labeled Ser/Thr 07 peptide
PRKCZ = target: T1, PRKCZ (Homo sapiens, UniProt Q05513); experiment: Inhibition of recombinant human full-length untagged PRKCZ expressed in baculovirus expression system at 25 uM using FRET-labeled Ser/Thr 07 peptide as substrate measured after 1 hr by Z'-lyte assay relative to control; details: probe FRET-labeled Ser/Thr 07 peptide
T1 sequence (Q05513 whole entry): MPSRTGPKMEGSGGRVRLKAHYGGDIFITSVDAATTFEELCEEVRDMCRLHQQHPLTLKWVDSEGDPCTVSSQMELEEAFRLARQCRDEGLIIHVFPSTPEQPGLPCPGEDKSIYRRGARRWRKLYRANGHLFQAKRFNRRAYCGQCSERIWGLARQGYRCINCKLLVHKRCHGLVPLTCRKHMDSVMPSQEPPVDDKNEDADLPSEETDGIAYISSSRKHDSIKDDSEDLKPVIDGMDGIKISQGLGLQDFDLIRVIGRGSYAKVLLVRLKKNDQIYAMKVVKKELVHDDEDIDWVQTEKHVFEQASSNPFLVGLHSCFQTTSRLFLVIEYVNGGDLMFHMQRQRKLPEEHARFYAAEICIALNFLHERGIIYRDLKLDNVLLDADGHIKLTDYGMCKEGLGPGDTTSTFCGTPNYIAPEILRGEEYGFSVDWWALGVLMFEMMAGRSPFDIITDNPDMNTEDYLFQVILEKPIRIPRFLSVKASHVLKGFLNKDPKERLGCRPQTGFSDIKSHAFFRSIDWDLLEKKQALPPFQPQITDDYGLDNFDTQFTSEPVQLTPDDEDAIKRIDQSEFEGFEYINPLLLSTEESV

CHEK1 = target: T2, CHEK1 (Homo sapiens, UniProt O14757); experiment: Inhibition of recombinant human full-length His-tagged CHEK1 expressed in baculovirus expression system at 25 uM using FRET-labeled Ser/Thr 19 peptide as substrate measured after 1 hr by Z'-lyte assay relative to control; details: probe FRET-labeled Ser/Thr 19 peptide
T2 sequence (O14757 whole entry): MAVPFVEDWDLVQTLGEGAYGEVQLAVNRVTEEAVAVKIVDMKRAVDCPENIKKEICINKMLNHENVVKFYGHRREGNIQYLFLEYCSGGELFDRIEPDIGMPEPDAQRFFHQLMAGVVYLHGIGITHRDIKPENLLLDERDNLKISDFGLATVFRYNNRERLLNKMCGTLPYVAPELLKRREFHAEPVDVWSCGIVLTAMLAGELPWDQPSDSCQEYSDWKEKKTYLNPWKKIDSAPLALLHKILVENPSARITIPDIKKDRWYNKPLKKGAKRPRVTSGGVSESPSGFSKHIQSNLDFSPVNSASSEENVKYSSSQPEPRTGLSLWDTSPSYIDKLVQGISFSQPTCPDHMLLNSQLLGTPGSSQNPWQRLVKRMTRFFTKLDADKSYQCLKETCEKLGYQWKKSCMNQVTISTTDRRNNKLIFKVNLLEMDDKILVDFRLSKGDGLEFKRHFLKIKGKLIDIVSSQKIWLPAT

Sequence of MAP4K4 (O95819 whole entry, the tested form may be a part): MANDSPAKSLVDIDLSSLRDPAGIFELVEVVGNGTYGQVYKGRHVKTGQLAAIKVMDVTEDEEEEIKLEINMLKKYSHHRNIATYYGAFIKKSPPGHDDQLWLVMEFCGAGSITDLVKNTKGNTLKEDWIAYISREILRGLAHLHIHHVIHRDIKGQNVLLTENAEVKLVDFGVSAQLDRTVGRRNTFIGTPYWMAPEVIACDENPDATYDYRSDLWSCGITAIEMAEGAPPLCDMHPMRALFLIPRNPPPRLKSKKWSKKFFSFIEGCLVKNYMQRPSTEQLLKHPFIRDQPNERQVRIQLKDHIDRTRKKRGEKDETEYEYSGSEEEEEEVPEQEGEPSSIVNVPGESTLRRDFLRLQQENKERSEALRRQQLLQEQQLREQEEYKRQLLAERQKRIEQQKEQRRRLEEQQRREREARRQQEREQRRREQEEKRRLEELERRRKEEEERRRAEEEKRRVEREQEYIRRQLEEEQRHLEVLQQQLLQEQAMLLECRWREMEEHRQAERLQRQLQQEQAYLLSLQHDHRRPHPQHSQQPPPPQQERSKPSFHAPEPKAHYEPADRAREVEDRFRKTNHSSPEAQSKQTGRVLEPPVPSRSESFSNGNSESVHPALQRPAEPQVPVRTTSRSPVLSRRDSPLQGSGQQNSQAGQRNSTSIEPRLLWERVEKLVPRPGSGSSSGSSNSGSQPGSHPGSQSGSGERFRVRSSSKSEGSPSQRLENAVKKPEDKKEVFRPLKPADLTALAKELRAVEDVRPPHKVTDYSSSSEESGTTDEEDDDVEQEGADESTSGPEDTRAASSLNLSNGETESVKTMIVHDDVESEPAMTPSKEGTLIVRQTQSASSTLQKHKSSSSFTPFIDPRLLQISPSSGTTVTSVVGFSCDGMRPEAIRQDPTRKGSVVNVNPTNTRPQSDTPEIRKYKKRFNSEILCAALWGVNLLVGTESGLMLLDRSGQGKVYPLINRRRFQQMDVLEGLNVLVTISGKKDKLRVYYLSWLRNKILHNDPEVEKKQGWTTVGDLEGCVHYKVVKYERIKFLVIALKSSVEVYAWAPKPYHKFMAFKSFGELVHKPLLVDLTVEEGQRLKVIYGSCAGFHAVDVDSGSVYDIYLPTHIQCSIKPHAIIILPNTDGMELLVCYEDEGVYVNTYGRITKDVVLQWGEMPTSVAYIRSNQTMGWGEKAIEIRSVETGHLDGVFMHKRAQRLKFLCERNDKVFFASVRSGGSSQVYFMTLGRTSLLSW
Sequence of CHEK2 (O96017 whole entry): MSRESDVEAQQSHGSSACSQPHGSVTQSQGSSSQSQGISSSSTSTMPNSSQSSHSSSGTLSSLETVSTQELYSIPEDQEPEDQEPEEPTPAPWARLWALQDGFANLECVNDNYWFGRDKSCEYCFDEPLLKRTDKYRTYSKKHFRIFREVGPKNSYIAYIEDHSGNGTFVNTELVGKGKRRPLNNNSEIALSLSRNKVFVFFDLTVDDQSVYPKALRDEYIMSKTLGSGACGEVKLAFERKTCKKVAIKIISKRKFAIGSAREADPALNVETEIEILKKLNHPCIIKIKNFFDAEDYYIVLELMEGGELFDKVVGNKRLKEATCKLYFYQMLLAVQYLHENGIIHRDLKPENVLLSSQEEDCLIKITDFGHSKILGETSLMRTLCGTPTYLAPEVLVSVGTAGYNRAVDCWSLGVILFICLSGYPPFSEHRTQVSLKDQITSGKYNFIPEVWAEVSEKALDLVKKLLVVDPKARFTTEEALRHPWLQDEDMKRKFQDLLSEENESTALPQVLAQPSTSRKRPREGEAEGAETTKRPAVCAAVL
Sequence of PDK1 (Q15118 whole entry): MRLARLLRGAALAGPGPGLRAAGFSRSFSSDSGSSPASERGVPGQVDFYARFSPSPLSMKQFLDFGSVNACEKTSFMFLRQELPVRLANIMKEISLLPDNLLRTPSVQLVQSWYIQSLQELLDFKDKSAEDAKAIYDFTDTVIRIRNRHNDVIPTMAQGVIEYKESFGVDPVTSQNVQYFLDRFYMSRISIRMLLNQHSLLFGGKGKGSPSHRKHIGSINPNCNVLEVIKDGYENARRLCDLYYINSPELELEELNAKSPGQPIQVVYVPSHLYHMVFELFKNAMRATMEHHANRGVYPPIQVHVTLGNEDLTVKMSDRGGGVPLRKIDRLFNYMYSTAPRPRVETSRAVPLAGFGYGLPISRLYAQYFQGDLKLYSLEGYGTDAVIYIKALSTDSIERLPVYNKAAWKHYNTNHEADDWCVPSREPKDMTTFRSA
Sequence of AKT1 (P31749 whole entry): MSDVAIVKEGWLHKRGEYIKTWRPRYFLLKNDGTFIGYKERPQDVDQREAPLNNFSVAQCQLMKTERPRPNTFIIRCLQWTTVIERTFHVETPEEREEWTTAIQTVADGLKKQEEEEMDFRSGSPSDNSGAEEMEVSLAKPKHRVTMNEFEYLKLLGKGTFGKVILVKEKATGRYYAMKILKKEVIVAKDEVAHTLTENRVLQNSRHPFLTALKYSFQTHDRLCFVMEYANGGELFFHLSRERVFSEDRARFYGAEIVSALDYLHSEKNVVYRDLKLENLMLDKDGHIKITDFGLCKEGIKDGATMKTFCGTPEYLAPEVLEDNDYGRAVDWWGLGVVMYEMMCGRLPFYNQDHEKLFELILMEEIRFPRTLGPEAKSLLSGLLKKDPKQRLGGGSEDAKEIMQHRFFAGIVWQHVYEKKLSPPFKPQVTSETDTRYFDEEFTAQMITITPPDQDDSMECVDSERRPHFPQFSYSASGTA
Sequence of ABL1 (P00519 whole entry, the tested form may be a part): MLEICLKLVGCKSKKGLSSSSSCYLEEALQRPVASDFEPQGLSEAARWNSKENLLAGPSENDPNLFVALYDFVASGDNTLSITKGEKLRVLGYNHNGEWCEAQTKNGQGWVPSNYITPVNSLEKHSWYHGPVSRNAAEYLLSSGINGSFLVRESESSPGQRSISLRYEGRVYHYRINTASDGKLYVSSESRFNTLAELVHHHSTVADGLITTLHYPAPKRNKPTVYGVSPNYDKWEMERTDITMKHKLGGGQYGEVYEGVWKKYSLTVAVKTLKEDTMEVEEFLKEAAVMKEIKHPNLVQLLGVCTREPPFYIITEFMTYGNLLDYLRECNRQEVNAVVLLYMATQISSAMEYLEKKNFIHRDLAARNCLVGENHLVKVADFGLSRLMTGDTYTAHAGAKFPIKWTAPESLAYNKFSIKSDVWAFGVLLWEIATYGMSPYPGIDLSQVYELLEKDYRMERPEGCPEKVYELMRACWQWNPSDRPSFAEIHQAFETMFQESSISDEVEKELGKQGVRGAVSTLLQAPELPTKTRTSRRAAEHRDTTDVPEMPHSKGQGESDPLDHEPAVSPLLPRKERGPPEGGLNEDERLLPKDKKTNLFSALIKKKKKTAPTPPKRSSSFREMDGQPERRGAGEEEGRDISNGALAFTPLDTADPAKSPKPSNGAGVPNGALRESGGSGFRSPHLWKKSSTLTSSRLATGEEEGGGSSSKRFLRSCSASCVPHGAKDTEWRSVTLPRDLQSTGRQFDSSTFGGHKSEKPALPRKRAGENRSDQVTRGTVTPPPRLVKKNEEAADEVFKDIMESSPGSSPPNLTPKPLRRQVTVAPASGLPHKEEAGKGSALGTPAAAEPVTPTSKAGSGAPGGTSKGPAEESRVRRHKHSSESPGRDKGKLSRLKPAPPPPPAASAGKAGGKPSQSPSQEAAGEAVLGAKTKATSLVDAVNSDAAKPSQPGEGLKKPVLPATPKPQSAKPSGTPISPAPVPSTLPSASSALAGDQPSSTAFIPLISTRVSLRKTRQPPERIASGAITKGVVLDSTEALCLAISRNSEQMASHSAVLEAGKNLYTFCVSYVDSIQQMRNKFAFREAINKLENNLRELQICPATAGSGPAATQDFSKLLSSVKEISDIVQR
Sequence of MAPKAPK2 (P49137 whole entry, the tested form may be a part): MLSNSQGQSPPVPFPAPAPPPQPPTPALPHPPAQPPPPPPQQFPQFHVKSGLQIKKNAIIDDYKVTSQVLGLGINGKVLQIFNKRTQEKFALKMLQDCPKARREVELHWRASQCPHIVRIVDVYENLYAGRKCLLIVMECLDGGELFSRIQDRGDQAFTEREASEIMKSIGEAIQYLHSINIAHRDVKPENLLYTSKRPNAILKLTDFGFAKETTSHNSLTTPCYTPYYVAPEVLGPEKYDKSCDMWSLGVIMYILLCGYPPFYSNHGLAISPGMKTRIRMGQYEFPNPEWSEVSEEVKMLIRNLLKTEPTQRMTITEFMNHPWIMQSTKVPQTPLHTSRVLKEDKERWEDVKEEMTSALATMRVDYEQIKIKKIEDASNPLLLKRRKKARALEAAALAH
Sequence of PAK4 (O96013 whole entry, the tested form may be a part): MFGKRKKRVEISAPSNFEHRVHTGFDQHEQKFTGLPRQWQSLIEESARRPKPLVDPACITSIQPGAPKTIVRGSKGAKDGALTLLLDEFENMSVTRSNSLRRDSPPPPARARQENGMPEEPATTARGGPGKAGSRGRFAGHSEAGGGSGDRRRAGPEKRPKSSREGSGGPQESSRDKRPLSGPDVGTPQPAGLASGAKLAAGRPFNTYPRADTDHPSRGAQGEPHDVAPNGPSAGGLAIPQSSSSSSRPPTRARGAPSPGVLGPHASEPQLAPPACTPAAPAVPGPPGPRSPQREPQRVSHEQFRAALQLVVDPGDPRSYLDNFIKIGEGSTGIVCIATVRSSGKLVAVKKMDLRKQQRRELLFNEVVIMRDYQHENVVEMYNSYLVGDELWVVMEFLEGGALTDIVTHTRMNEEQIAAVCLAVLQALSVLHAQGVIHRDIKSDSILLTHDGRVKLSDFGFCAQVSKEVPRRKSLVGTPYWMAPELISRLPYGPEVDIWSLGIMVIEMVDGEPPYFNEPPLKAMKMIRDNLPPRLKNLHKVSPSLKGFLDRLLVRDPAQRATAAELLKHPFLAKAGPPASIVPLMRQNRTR

## Nc1ncc2cc(-c3c(Cl)cccc3-c3cccnc3)c(N3C[C@@H]4[C@@H](N)[C@@H]4C3)nc2n1
Escherichia coli
  MIC: 0.008 µg/mL
ABL1
  inhibition at 1 h, 25 µM: 38%
EGFR
  inhibition at 1 h, 25 µM: 65%
MAP4K4
  inhibition at 1 h, 25 µM: 21%
NTRK1
  inhibition at 1 h, 25 µM: 47%
PAK4
  inhibition at 1 h, 25 µM: 25%
CSNK1D
  inhibition at 1 h, 25 µM: 3%
CHEK2
  inhibition at 1 h, 25 µM: 20%
MAPKAPK2
  inhibition at 1 h, 25 µM: 26%
INSR
  inhibition at 1 h, 25 µM: 3%
GSK3B
  inhibition at 1 h, 25 µM: 4%
AKT1
  inhibition at 1 h, 25 µM: 6%
PDK1
  inhibition at 1 h, 25 µM: 0%
PRKCZ
  inhibition at 1 h, 25 µM: 5%
CHEK1
  inhibition at 1 h, 25 µM: 28%

## CC(C)COc1cccc(Cl)c1-c1cc2cnc(N)nc2nc1N1C[C@@H]2[C@@H](N)[C@@H]2C1
Escherichia coli
  MIC: 0.015 µg/mL
ABL1
  inhibition at 1 h, 25 µM: 30%
EGFR
  inhibition at 1 h, 25 µM: 6%
MAP4K4
  inhibition at 1 h, 25 µM: 24%
NTRK1
  inhibition at 1 h, 25 µM: 40%
PAK4
  inhibition at 1 h, 25 µM: 23%
CSNK1D
  inhibition at 1 h, 25 µM: 3%
CHEK2
  inhibition at 1 h, 25 µM: 67%
MAPKAPK2
  inhibition at 1 h, 25 µM: 21%
INSR
  inhibition at 1 h, 25 µM: 3%
GSK3B
  inhibition at 1 h, 25 µM: 7%
AKT1
  inhibition at 1 h, 25 µM: 7%
PDK1
  inhibition at 1 h, 25 µM: 0%
PRKCZ
  inhibition at 1 h, 25 µM: -8%
CHEK1
  inhibition at 1 h, 25 µM: 42%

## Nc1ncc2cc(-c3c(Br)cccc3Br)c(N)nc2n1
Escherichia coli
  MIC: 0.12 µg/mL
ABL1
  inhibition at 1 h, 25 µM: 97%
EGFR
  inhibition at 1 h, 25 µM: 58%
MAP4K4
  inhibition at 1 h, 25 µM: 52%
NTRK1
  inhibition at 1 h, 25 µM: 47%
PAK4
  inhibition at 1 h, 25 µM: 20%
CSNK1D
  inhibition at 1 h, 25 µM: 16%
CHEK2
  inhibition at 1 h, 25 µM: 13%
MAPKAPK2
  inhibition at 1 h, 25 µM: 10%
INSR
  inhibition at 1 h, 25 µM: 6%
GSK3B
  inhibition at 1 h, 25 µM: 6%
AKT1
  inhibition at 1 h, 25 µM: 4%
PDK1
  inhibition at 1 h, 25 µM: 3%
PRKCZ
  inhibition at 1 h, 25 µM: 0%
CHEK1
  inhibition at 1 h, 25 µM: -1%
